Laboratory results published in ChEMBL document CHEMBL3045196, “Relationships between Insecticidal Activity of 6-Alkylthio-2-pyridyl Methanesulfonates and Acetylcholinesterase Inhibition of their Sulfone Derivatives against Nephotettix cincticeps” (J Pestic Sci, 1990).

Assays:
Nephotettix cincticeps [1] = test: Insecticidal activity against resistant Nephotettix cincticeps Izumi (green rice leafhopper) assessed as mortality by foliar-spray; type: functional
Nephotettix cincticeps [2] = test: Insecticidal activity against susceptible Nephotettix cincticeps Ageo (green rice leafhopper)assessed as mortality by foliar-spray; type: functional
[3] = Methanol-water partition coefficient, log k of the compound; type: physicochemical
[4] = molecular target: Ace-orthologous acetylcholinesterase (Nephotettix cincticeps) (UniProt Q9NJH6); test: Inhibition of susceptible Nephotettix cincticeps Ageo (green rice leafhopper) acetylcholinesterase activity
[5] = molecular target: Ace-orthologous acetylcholinesterase (Nephotettix cincticeps) (UniProt Q9NJH6); test: Inhibition of susceptible Nephotettix cincticeps Izumi (green rice leafhopper) acetylcholinesterase activity

Ace-orthologous acetylcholinesterase (Nephotettix cincticeps), sequence (Q9NJH6 20-677 limits assumed): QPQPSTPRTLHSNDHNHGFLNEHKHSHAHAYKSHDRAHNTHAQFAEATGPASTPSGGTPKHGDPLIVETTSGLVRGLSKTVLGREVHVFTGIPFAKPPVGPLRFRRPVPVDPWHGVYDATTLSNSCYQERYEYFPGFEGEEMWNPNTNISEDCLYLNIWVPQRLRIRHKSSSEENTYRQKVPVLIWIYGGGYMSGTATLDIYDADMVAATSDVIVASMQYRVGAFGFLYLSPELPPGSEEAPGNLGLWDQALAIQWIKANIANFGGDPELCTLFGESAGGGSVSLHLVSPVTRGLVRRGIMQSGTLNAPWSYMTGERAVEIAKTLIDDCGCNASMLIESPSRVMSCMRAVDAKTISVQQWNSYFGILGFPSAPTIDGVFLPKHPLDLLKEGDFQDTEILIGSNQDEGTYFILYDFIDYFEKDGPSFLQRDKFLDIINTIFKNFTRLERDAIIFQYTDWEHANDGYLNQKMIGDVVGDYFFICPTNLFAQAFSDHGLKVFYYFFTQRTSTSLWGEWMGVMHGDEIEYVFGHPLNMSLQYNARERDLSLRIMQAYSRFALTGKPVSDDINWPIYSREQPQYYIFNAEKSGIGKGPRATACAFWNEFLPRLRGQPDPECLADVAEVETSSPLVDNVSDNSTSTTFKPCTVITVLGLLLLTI

| Structure (SMILES) | log(1/LD50) (Nephotettix cincticeps [1]) | log(1/LD50) (Nephotettix cincticeps [2]) | log K [3] | log(1/I50) [4] | log(1/I50) [5] |
| --- | --- | --- | --- | --- | --- |
| CCC(C)Sc1cccc(OS(C)(=O)=O)n1 (stereo not drawn) | 7.68 | 8.24 | 0.37 |  |  |
| CS(=O)(=O)Oc1cccc(S(=O)(=O)C2CCCCC2)n1 |  |  | 0.565 | 9.02 | 9.1 |
| CCCS(=O)(=O)c1cccc(OS(C)(=O)=O)n1 |  |  | -0.036 | 8.7 | 8.08 |
| CC(C)(C)Sc1cccc(OS(C)(=O)=O)n1 | 6.87 | 7.82 | 0.277 |  |  |
| CCCC(C)Sc1cccc(OS(C)(=O)=O)n1 (stereo not drawn) | 7.41 | 7.65 | 0.59 |  |  |
| CS(=O)(=O)Oc1cccc(S(=O)(=O)c2ccccc2)n1 |  |  | 0.236 | 8.14 | 8 |
| CS(=O)(=O)Oc1cccc(SC2CCCC2)n1 | 7.82 | 8.39 | 0.447 |  |  |
| CC(C)CSc1cccc(OS(C)(=O)=O)n1 [6-(ISOBUTYLTHIO)PYRIDIN-2-YL METHANESULFONATE] | 7.95 | 8.16 | 0.399 |  |  |
| CC(C)CCS(=O)(=O)c1cccc(OS(C)(=O)=O)n1 |  |  | 0.576 | 7.77 | 7.8 |
| CCCCS(=O)(=O)c1cccc(OS(C)(=O)=O)n1 |  |  | 0.293 | 8.8 | 8.22 |
| CCC(C)S(=O)(=O)c1cccc(OS(C)(=O)=O)n1 (stereo not drawn) |  |  | 0.188 | 8.7 | 9 |
| CC(C)CS(=O)(=O)c1cccc(OS(C)(=O)=O)n1 |  |  | 0.274 | 9.15 | 8.4 |
| CS(=O)(=O)Oc1cccc(SC2CCCCC2)n1 | 7.28 | 7.69 | 0.664 |  |  |
| CC(C)CCSc1cccc(OS(C)(=O)=O)n1 | 6.44 | 7.24 | 0.614 |  |  |
| CC(C)S(=O)(=O)c1cccc(OS(C)(=O)=O)n1 |  |  | -0.115 | 9.52 | 8.3 |
| CS(=O)(=O)Oc1cccc(S(C)(=O)=O)n1 |  |  | -0.602 | 7.17 |  |
| CCCSc1cccc(OS(C)(=O)=O)n1 | 7.65 | 8.57 | 0.196 |  |  |

| Structure (SMILES) | log(1/LD50) (Nephotettix cincticeps [1]) | log(1/LD50) (Nephotettix cincticeps [2]) | log K [3] | log(1/I50) [4] | log(1/I50) [5] |
| --- | --- | --- | --- | --- | --- |
| CCSc1cccc(OS(C)(=O)=O)n1 | 7.33 | 8.14 | -0.034 |  |  |
| CS(=O)(=O)Oc1cccc(S(=O)(=O)C2CCCC2)n1 |  |  | 0.274 | 9.15 | 9.11 |
| CS(=O)(=O)Oc1cccc(SCc2ccccc2)n1 | 6.97 | 7.91 | 0.33 |  |  |
| CS(=O)(=O)Oc1cccc(Sc2ccccc2)n1 | 7.3 | 8.53 | 0.268 |  |  |
| CC(C)Sc1cccc(OS(C)(=O)=O)n1 | 7.39 | 8.43 | 0.163 |  |  |
| CSCCSc1cccc(OS(C)(=O)=O)n1 | 6.54 | 7.7 | -0.174 |  |  |
| CC(C)(C)CSc1cccc(OS(C)(=O)=O)n1 | 6.69 | 8.26 | 0.558 |  |  |
| CS(=O)(=O)Oc1cccc(SCC2CC2)n1 | 7.8 | 8.64 | 0.192 |  |  |
| CS(=O)(=O)Oc1cccc(S(=O)(=O)Cc2ccccc2)n1 |  |  | 0.35 | 8.82 | 8.09 |
| CCCC(C)S(=O)(=O)c1cccc(OS(C)(=O)=O)n1 (stereo not drawn) |  |  | 0.507 | 9.3 | 9.7 |
| CSc1cccc(OS(C)(=O)=O)n1 | 5.74 | 6.71 | 0.259 |  |  |
| CC(C)(C)S(=O)(=O)c1cccc(OS(C)(=O)=O)n1 |  |  | 0.085 | 7.28 | 7.07 |
| CCS(=O)(=O)c1cccc(OS(C)(=O)=O)n1 |  |  | -0.358 | 8.02 | 7.22 |
| CCCCCSc1cccc(OS(C)(=O)=O)n1 | 6.74 | 7.43 | 0.649 |  |  |
| CCCCSc1cccc(OS(C)(=O)=O)n1 | 7.41 | 8.3 | 0.425 |  |  |
| CCCCCS(=O)(=O)c1cccc(OS(C)(=O)=O)n1 |  |  | 0.632 | 8.15 | 8 |
